Biological target: T1, VPS34 (Homo sapiens, UniProt Q8NEB9)
T1 construct: GST (N); host or cells: SF9 insect cells (baculovirus)
Assay: Human VPS34 enzyme assay (Adapta TR-FRET)
Format: biochemical
Conditions: for inhibition at 1.11 µM: 1 h, at a 1.11 μM concentration, read-out: VPS34 Percent Inhibition; for IC50: VPS34 enzyme
Protocol: VPS34 (accession number GB:BC033004) was cloned into pDEST20-Thombin as N-terminal GST tagged fusion proteins using the Gateway system (Invitrogen, catalog#11804-013). The sequences were verified before recombinant protein expression using the Baculovirus Expression System with Gateway® Technology.
For expression VPS34 was infected at 1MOI in SF9 cells and harvested 72 hours post infection.
For purification, VPS34 is purified by Glutathione Sepharose 4 Fast Flow (GE Healthcare #17-5132-03) followed by HiTrap Q (GE Healthcare #17-1153-01).
Human VPS34 enzyme assay method
100mL compounds in DMSO are added to wells of a 384 well microtitre plate (Greiner 780076). At room temperature: 5ul VPS34 reaction buffer (Invitrogen Assay Buffer Q (diluted 1 in 5 with nanopure water) plus 2 mM DTT and 2 mM MnCl2) containing ATP (20 uM, Promega) and 200 uM PI—PS substrate (Invitrogen PV5122) is added followed immediately by 5ul VPS34 reaction buffer (as above) containing VPS34 (5 nM, Millennium Protein Sciences Group) and the mixture is incubated with shaking at room temperature for 1 hour. Then 5ul VPS34 stop-detect mix (as per Invitrogen Adapta Assay kit (PV5009) instructions (contains kinase quench buffer, TR-FRET buffer, Adapta Eu anti-ADP antibody and Alexa Fluor 647 ADP tracer)) is added to quench the reaction. The plates are then incubated for 30 minutes at room temperature with shaking and then read on a BMG PheraStar Plus reader.
For the assay methods described above, test compound percent inhibition, at various concentrations, is calculated relative to control (DMSO and EDTA) treated samples. Compound concentration versus percent inhibition curves are fitted to generate IC50 values. One skilled in the art will appreciate that the values generated either as percentage inhibition at a single concentration or IC50 values are subject to experimental variation.

T1 sequence (Q8NEB9 whole entry): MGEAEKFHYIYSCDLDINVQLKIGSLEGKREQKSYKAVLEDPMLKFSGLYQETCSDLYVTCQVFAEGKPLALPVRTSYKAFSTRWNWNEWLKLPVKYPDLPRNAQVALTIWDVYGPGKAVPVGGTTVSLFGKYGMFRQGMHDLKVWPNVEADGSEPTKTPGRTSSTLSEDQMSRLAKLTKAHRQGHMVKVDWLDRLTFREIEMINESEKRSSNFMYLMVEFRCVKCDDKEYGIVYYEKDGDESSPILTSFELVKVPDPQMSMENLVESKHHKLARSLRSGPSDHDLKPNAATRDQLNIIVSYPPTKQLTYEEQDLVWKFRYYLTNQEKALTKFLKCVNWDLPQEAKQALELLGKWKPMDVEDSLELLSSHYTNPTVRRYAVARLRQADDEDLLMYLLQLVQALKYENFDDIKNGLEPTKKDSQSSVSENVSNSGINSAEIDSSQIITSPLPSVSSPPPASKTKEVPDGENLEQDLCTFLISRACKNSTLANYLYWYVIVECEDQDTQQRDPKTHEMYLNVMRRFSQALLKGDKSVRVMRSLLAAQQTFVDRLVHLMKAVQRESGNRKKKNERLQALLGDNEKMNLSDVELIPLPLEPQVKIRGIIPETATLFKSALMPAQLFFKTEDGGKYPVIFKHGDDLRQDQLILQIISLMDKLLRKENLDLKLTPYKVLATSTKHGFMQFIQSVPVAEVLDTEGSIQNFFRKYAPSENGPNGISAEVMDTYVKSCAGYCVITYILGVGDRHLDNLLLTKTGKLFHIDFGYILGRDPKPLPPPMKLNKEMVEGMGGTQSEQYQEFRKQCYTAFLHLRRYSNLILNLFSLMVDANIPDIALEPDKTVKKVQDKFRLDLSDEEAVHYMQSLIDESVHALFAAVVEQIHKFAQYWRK

| Structure (SMILES) | inhibition at 1.11 µM | IC50 |
| --- | --- | --- |
| CC(=O)Nc1cc(-c2cc(C(N)=O)c(-c3ccnc(NC(C)=O)c3)n2C)ccn1 [I-95, 2,5-bis(2-acetamidopyridin-4-yl)-1-methyl-1H-pyrrole-3-carboxamide] | 18% | 1 to 10 µM |
| CC(=O)Nc1cc(-c2cc(C(N)=O)n(-c3ncccc3Cl)c2)c(C)cn1 [I-90, 4-(2-acetamido-5-methylpyridin-4-yl)-1-(3-chloropyridin-2-yl)-1H-pyrrole-2-carboxamide] | 39% | 1 to 10 µM |
| CC(=O)Nc1cc(-c2cc(-c3ccccc3Cl)n(-c3nccs3)n2)ccn1 [I-3, N-[4-[5-(2-chlorophenyl)-1-(1,3-thiazol-2-yl)-1H-pyrazol-3-yl]pyridin-2-yl]acetamide] | 6% | 1 to 10 µM |
| CC(=O)Nc1cc(-c2cc(-c3ccccc3C)c(C(N)=O)n2C)ccn1 [I-104, 5-(2-acetamidopyridin-4-yl)-1-methyl-3-(2-methylphenyl)-1H-pyrrole-2-carboxamide] | 7% | 1 to 10 µM |
| CC(=O)Nc1cc(-c2cc(C(N)=O)n(-c3ccccc3Cl)n2)ccn1 [I-14, 3-(2-acetamidopyridin-4-y1)-1-(2-chlorophenyl)-1H-pyrazole-5-carboxamide] | 45% | 1 to 10 µM |
| CC(=O)Nc1cc(-c2cc(C(N)=O)n(-c3ccccc3Cl)c2)c(C)cn1 [I-97, 4-(2-acetamido-5-methylpyridin-4-yl)-1-(2-chlorophenyl)-1H-pyrrole-2-carboxamide] | 96% | 0.1 to 1 µM |
| CC(=O)Nc1cc(-c2cc(-c3ccccc3C)c(-c3nc[nH]n3)n2C)ccn1 [I-103, N-{4-[1-methyl-4-(2-methylphenyl)-5-(1H-1,2,4-triazol-3-yl)-1H-pyrrol-2-yl]pyridin-2-yl}acetamide] | 39% | 1 to 10 µM |
| CC(=O)Nc1cc(-c2cc(-c3nnc[nH]3)cn2CC2CC2)ccn1 [I-87, N-{4-[1-(cyclopropylmethyl)-4-(4H-1,2,4-triazol-3-yl)-1H-pyrrol-2-yl]pyridin-2-yl}acetamide] | 93% | 0.1 to 1 µM |
| CCCn1cc(-c2cc(NC(=O)C3CC3)ncc2C)cc1-c1nc[nH]n1 [I-94, N-{5-methyl-4-[1-propyl-5-(4H-1,2,4-triazol-3-yl)-1H-pyrrol-3-yl]pyridin-2-yl}cyclopropanecarboxamide] | > 99% | 0.1 to 1 µM |
| CC(=O)Nc1cc(-c2cc(-c3ccccc3C)c(-c3nnc[nH]3)[nH]2)ccn1 [I-101, N-{4-[4-(2-methylphenyl)-5-(4H-1,2,4-triazol-3-yl)-1H-pyrrol-2-yl]pyridin-2-yl}acetamide] | 60% | 0.1 to 1 µM |

The next lines start with the values.

| inhibition at 1.11 µM | IC50 | Structure (SMILES) |
| --- | --- | --- |
| 96% | 0.1 to 1 µM | CC(=O)Nc1cc(-c2cc(-c3ccccc3C)c(C(N)=O)[nH]2)ccn1 [I-102, 5-(2-acetamidopyridin-4-yl)-3-(2-methylphenyl)-1H-pyrrole-2-carboxamide] |
| 69% | < 0.1 µM | C=CCn1cc(-c2cc(NC(=O)C3CC3)ncc2C)cc1-c1nc[nH]n1 [I-88, N-{4-[1-allyl-5-(1H-1,2,4-triazol-3-yl)-1H-pyrrol-3-yl]-5-methylpyridin-2-yl}cyclopropanecarboxamide] |
| 96% | 0.1 to 1 µM | CC(=O)Nc1cc(-c2cc(-c3nnc[nH]3)n(-c3ccccc3Cl)n2)ccn1 [I-21, N-{4-[1-(2-chlorophenyl)-5-(1H-1,2,4-triazol-3-yl)-1H-pyrazol-3-yl]pyridin-2-yl}acetamide] |
| > 99% | 0.1 to 1 µM | CCn1cc(-c2nnc[nH]2)cc1-c1ccnc(NC(C)=O)c1 [I-86, N-{4-[1-ethyl-4-(4H-1,2,4-triazol-3-yl)-1H-pyrrol-2-yl]pyridin-2-yl}acetamide] |
| > 99% | < 0.1 µM | CC(=O)Nc1cc(-c2cc(-c3nnc[nH]3)n(CC3CC3)c2)c(C)cn1 [I-91, N-{4-[1-(cyclopropylmethyl)-5-(4H-1,2,4-triazol-3-yl)-1H-pyrrol-3-yl]-5-methylpyridin-2-yl}acetamide] |
| > 99% | < 0.1 µM | CC(=O)Nc1cc(-c2cc(-c3nnc[nH]3)n(-c3ccc(Cl)cc3Cl)n2)ccn1 [I-15, N-{4-[1-(2,4-dichlorophenyl)-5-(4H-1,2,4-triazol-3-yl)-1H-pyrazol-3-yl]pyridin-2-yl}acetamide] |
| 54% | 0.1 to 1 µM | CCn1cc(C(N)=O)cc1-c1ccnc(NC(C)=O)c1 [I-100, 5-(2-acetamidopyridin-4-yl)-1-ethyl-1H-pyrrole-3-carboxamide] |
| > 99% | < 0.1 µM | Cc1cnc(NC(=O)C2CC2)cc1-c1cc(-c2nc[nH]n2)n(-c2ccccc2Cl)c1 [I-98, N-{4-[1-(2-chlorophenyl)-5-(1H-1,2,4-triazol-3-yl)-1H-pyrrol-3-yl]-5-methylpyridin-2-yl}cyclopropanecarboxamide] |
| > 99% | < 0.1 µM | CC(=O)Nc1cc(-c2cc(C(N)=O)n(-c3ccc(N)cc3Cl)c2)c(C)cn1 [I-89, 4-(2-acetamido-5-methylpyridin-4-yl)-1-(4-amino-2-chlorophenyl)-1H-pyrrole-2-carboxamide] |
| 96% | 0.1 to 1 µM | CC(=O)Nc1cc(-c2cc(-c3nc[nH]n3)n(-c3ncccc3Cl)c2)c(C)cn1 [I-96] |
| > 99% | < 0.1 µM | CC(=O)Nc1cc(-c2cc(-c3nc[nH]n3)n(-c3ccccc3Cl)c2)c(C)cn1 [I-93, N-{4-[1-(2-chlorophenyl)-5-(1H-1,2,4-triazol-3-yl)-1H-pyrrol-3-yl]-5-methylpyridin-2-yl}acetamide] |
| 93% | 0.1 to 1 µM | Cc1cnc(NC(=O)C2CC2)cc1-c1cc(C(N)=O)n(-c2ccccc2Cl)c1 [I-99, 1-(2-chlorophenyl)-4-{2-[(cyclopropylcarbonyl)amino]-5-methylpyridin-4-yl}-1H-pyrrole-2-carboxamide] |
| 68% | 0.1 to 1 µM | CC(=O)Nc1cc(-c2cc(C(N)=O)n(CC3CC3)c2)c(C)cn1 [I-92, 4-(2-acetamido-5-methylpyridin-4-yl)-1-(cyclopropylmethyl)-1H-pyrrole-2-carboxamide] |

From patent US20130165483A1, “HETEROARYLS AND USES THEREOF” (MILLENNIUM PHARMACEUTICALS, INC., priority 2011, published 2013)
